Measured values: patent US20260115186A1, “PIPERIDINE UREA DERIVATIVES FOR CANCER THERAPY” (NEUROPN THERAPEUTICS INC., priority 2022, published 2026)

Tested on: adult zebrafish, paclitaxel induced nerve damage
Assay: Paclitaxel-induced peripheral neuropathy in adult zebrafish (tail fin stimulation)
Format: in vivo
Conditions: 3 μL of 10-μM paclitaxel, four consecutive days (Days 2-5), FIG. 9
Experimental: Method to evaluate potential of compounds of Formula 1 to reduce or block chemotherapy-induced peripheral neuropathy—Animal (zebrafish) model described below and in literature (Lisse T S et al PNAS 113 (15) E2189-E2198) was used to evaluate potential of compounds of Formula 1 to reduce or block neuronal damage induced by chemotherapeutics.
To induce peripheral neuropathy in adult zebrafish, 3 μL of a 10-μM paclitaxel solution in 0.15% DMSO was administered with a 33 gauge Hamilton Syringe for a zebrafish with average ˜200 mg body weight. Fish were treated with vehicle alone or paclitaxel for four consecutive days (Days 2-5) or paclitaxel with Compound A (10- or 30 ng). Compound A was dosed orally by mixing with the fish feed pellets. Fishes were conditioned to consume three pellets a day. […] To prepare test compound infused pellet, a known quantity of the compound was mixed with the known quantity of the feed powder and were extruded in to 4 mg pellet containing the desired administration dose per pellet. Concentration of test compound dosed per fish were controlled by the number of pellets and the quantity of compound per pellet. […]
To determine the peripheral nerve damage, fish were wrapped in plastic foil until calm, and the distal tail fin was stimulated with an insect pin until twitching of the fish was observed. Number of stimuli until twitch was recorded.

CC(=O)O[C@H]1C(=O)[C@@]2(C)[C@H]([C@H](OC(=O)c3ccccc3)[C@]3(O)C[C@H](OC(=O)[C@H](O)[C@@H](NC(=O)c4ccccc4)c4ccccc4)C(C)=C1C3(C)C)[C@]1(OC(C)=O)CO[C@@H]1C[C@@H]2O [paclitaxel]
peripheral nerve damage (number of stimuli until twitch) compared to vehicle alone: significant nerve damage
